Data: PubChem BioAssay (NCI)
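Protocol summary: plate cells (96-well), add compound at 5 concentrations, incubate 48 h, interpolate endpoints linearly. At the GI50, growth is halved. At the TGI there is no net growth.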

Tests used:
Experiment in all cases: inhibition of tumour cell growth, NCI panel, 48 h
NCI-H226 lung = test system: NCI-H226 lung
NCI-H23 lung = test system: NCI-H23 lung
NCI-H460 lung = test system: NCI-H460 lung
NCI-H522 lung = test system: NCI-H522 lung
NCI/ADR-RES ovarian = test system: NCI/ADR-RES ovarian
OVCAR-3 ovarian = test system: OVCAR-3 ovarian
OVCAR-4 ovarian = test system: OVCAR-4 ovarian
OVCAR-5 ovarian = test system: OVCAR-5 ovarian
OVCAR-8 ovarian = test system: OVCAR-8 ovarian
PC-3 prostate = test system: PC-3 prostate
RPMI-8226 leukemia = test system: RPMI-8226 leukemia
RXF 393 renal = test system: RXF 393 renal
SF-268 CNS = test system: SF-268 CNS
SF-295 CNS = test system: SF-295 CNS
SF-539 CNS = test system: SF-539 CNS
SK-MEL-2 melanoma = test system: SK-MEL-2 melanoma
SK-MEL-28 melanoma = test system: SK-MEL-28 melanoma
SK-MEL-5 melanoma = test system: SK-MEL-5 melanoma
SK-OV-3 ovarian = test system: SK-OV-3 ovarian
SN12C renal = test system: SN12C renal
SNB-19 CNS = test system: SNB-19 CNS
SNB-75 CNS = test system: SNB-75 CNS
SR leukemia = test system: SR leukemia
SW-620 colon = test system: SW-620 colon
T-47D breast = test system: T-47D breast
TK-10 renal = test system: TK-10 renal
U251 CNS = test system: U251 CNS
UACC-257 melanoma = test system: UACC-257 melanoma
UACC-62 melanoma = test system: UACC-62 melanoma
UO-31 renal = test system: UO-31 renal

**Q.** With O=C(Nc1ccc(I)cc1F)c1cc(F)ccc1O as the compound, how does the TGI (NCI-H226 lung) read?
**A.** 5.66 µM

**Q.** And the GI50 (NCI-H23 lung)?
**A.** 0.379 µM

**Q.** And the TGI (NCI-H23 lung)?
**A.** 4.04 µM

**Q.** What about the GI50 (NCI-H460 lung) of the same compound?
**A.** 0.456 µM

**Q.** What about the TGI (NCI-H460 lung) of the same compound?
**A.** > 27.7 µM

**Q.** And the GI50 (NCI-H522 lung)?
**A.** 0.304 µM

**Q.** And the GI50 (NCI/ADR-RES ovarian)?
**A.** 0.401 µM

**Q.** What about the TGI (NCI/ADR-RES ovarian) of the same compound?
**A.** > 27.7 µM

**Q.** What about the GI50 (OVCAR-3 ovarian) of the same compound?
**A.** 0.395 µM

**Q.** What about the TGI (OVCAR-3 ovarian) of the same compound?
**A.** > 56.4 µM

**Q.** What about the GI50 (OVCAR-4 ovarian) of the same compound?
**A.** 0.396 µM

**Q.** And the TGI (OVCAR-4 ovarian)?
**A.** 17.2 µM

**Q.** And the GI50 (OVCAR-5 ovarian)?
**A.** 4.04 µM

**Q.** And the TGI (OVCAR-5 ovarian)?
**A.** > 100 µM

**Q.** What about the GI50 (OVCAR-8 ovarian) of the same compound?
**A.** 1.07 µM

**Q.** And the TGI (OVCAR-8 ovarian)?
**A.** 48.7 µM

**Q.** And the GI50 (PC-3 prostate)?
**A.** 0.843 µM

**Q.** And the TGI (PC-3 prostate)?
**A.** 6.4 µM

**Q.** And the GI50 (RPMI-8226 leukemia)?
**A.** 0.253 µM

**Q.** What about the TGI (RPMI-8226 leukemia) of the same compound?
**A.** 0.888 µM

**Q.** And the GI50 (RXF 393 renal)?
**A.** 0.732 µM

**Q.** What about the TGI (RXF 393 renal) of the same compound?
**A.** 4.05 µM

**Q.** What about the GI50 (SF-268 CNS) of the same compound?
**A.** 0.513 µM

**Q.** What about the TGI (SF-268 CNS) of the same compound?
**A.** > 31.1 µM

**Q.** And the GI50 (SF-295 CNS)?
**A.** 1.86 µM

**Q.** What about the TGI (SF-295 CNS) of the same compound?
**A.** 3.74 µM

**Q.** And the GI50 (SF-539 CNS)?
**A.** 0.444 µM

**Q.** What about the TGI (SF-539 CNS) of the same compound?
**A.** 7.07 µM

**Q.** And the GI50 (SK-MEL-2 melanoma)?
**A.** 0.367 µM

**Q.** What about the TGI (SK-MEL-2 melanoma) of the same compound?
**A.** 1.92 µM

**Q.** And the GI50 (SK-MEL-28 melanoma)?
**A.** 0.353 µM

**Q.** And the TGI (SK-MEL-28 melanoma)?
**A.** 1.91 µM

**Q.** And the GI50 (SK-MEL-5 melanoma)?
**A.** 0.229 µM

**Q.** What about the TGI (SK-MEL-5 melanoma) of the same compound?
**A.** 0.556 µM

**Q.** What about the GI50 (SK-OV-3 ovarian) of the same compound?
**A.** 0.465 µM

**Q.** And the TGI (SK-OV-3 ovarian)?
**A.** 2.59 µM

**Q.** And the GI50 (SN12C renal)?
**A.** 0.354 µM

**Q.** And the TGI (SN12C renal)?
**A.** 3.77 µM

**Q.** What about the GI50 (SNB-19 CNS) of the same compound?
**A.** 0.406 µM

**Q.** And the TGI (SNB-19 CNS)?
**A.** > 100 µM

**Q.** And the GI50 (SNB-75 CNS)?
**A.** 0.225 µM

**Q.** And the TGI (SNB-75 CNS)?
**A.** 2.31 µM

**Q.** What about the GI50 (SR leukemia) of the same compound?
**A.** 0.413 µM

**Q.** And the TGI (SR leukemia)?
**A.** > 35.7 µM

**Q.** And the GI50 (SW-620 colon)?
**A.** 0.777 µM

**Q.** What about the TGI (SW-620 colon) of the same compound?
**A.** > 34.7 µM

**Q.** And the GI50 (T-47D breast)?
**A.** 0.313 µM

**Q.** And the TGI (T-47D breast)?
**A.** 3 µM

**Q.** What about the GI50 (TK-10 renal) of the same compound?
**A.** 1.59 µM

**Q.** And the TGI (TK-10 renal)?
**A.** 24.2 µM

**Q.** And the GI50 (U251 CNS)?
**A.** 0.578 µM

**Q.** What about the TGI (U251 CNS) of the same compound?
**A.** > 100 µM

**Q.** And the GI50 (UACC-257 melanoma)?
**A.** 0.392 µM

**Q.** And the TGI (UACC-257 melanoma)?
**A.** 2.89 µM

**Q.** What about the GI50 (UACC-62 melanoma) of the same compound?
**A.** 0.259 µM

**Q.** And the TGI (UACC-62 melanoma)?
**A.** 0.853 µM

**Q.** What about the GI50 (UO-31 renal) of the same compound?
**A.** 0.236 µM

**Q.** What about the TGI (UO-31 renal) of the same compound?
**A.** 1.34 µM
